Measurements: publication PMC2856764 (Human immunology, 2010)
Ends that are not written are not given here. Peptide text beside a SMILES is read from it.

Assays:
[1] = system: CD8+ enriched human donor PBMC; type: cell-based
[2] = biological target: HLA-A*0301 (Homo sapiens, UniProt P04439); experiment: biochemical; type: binding
[3] = biological target: HLA-A*1101 (Homo sapiens, UniProt P04439, A114D/D185E/E176A/F33Y/L180Q/S129P/T187R); experiment: biochemical; type: binding
[4] = biological target: HLA-A*3101 (Homo sapiens, UniProt P04439, A270S/D185E/E176V/E277Q/F33T/G231S/G80R/H175R/I121M/I218V/I322F/K168Q/L300P/L318F/M331R/P217A/Q94H/R138Q/T323A/T345S/T97I/V358M); experiment: biochemical; type: binding
[5] = biological target: HLA-A*3301 (Homo sapiens, UniProt P04439, A270S/D185E/E176V/E277Q/E87N/F33T/G231S/H175R/I121M/I218V/I322F/K168Q/K210R/L300P/L318F/M331R/P217A/Q86R/Q94H/R138Q/T323A/T345S/T97I/V358M/Y195H); experiment: biochemical; type: binding
[6] = biological target: HLA-A*6801 (Homo sapiens, UniProt P04439, A269V/D185E/E176V/E277Q/E87N/F33Y/G231S/I121M/I166T/I218V/L180W/L300P/L318F/N151K/P208A/P217A/Q86R/R169H/T345S); experiment: biochemical; type: binding
[7] = biological target: HLA-A*0201 (Homo sapiens, UniProt P04439, D140Y/D185E/D98H/E176V/E277Q/G131W/G231S/I119V/I121R/I166T/I218V/L300P/L318F/N151K/N90K/P208A/P217A/Q86G/Q94H/R138H/R169H/T345S); experiment: biochemical; type: binding
[8] = biological target: HLA-A*0202 (Homo sapiens, UniProt P04439, D140Y/D185E/D98H/E176V/E277Q/G131W/G231S/I119L/I121R/I166T/I218V/L180W/L300P/L318F/N151K/N90K/P208A/P217A/Q67R/Q86G/Q94H/R138H/R169H/T345S); experiment: biochemical; type: binding
[9] = biological target: HLA-A*0203 (Homo sapiens, UniProt P04439, A173T/D140Y/D185E/D98H/E277Q/G131W/G231S/I119V/I121R/I166T/I218V/L180W/L300P/L318F/N151K/N90K/P208A/P217A/Q86G/Q94H/R138H/R169H/T345S); experiment: biochemical; type: binding
[10] = biological target: HLA-A*0206 (Homo sapiens, UniProt P04439, D140Y/D185E/D98H/E176V/E277Q/F33Y/G131W/G231S/I119V/I121R/I166T/I218V/L300P/L318F/N151K/N90K/P208A/P217A/Q86G/Q94H/R138H/R169H/T345S); experiment: biochemical; type: binding
[11] = biological target: HLA-A*6802 (Homo sapiens, UniProt P04439, A269V/D140Y/D185E/E176V/E277Q/E87N/F33Y/G231S/I121R/I166T/I218V/L180W/L300P/L318F/N151K/P208A/P217A/Q86R/R138H/R169H/S129P/T345S/V36M); experiment: biochemical; type: binding
[12] = biological target: HLA-A*2902 (Homo sapiens, UniProt P04439, A270S/D101N/D185E/E176V/E277Q/E87Q/F33T/G231S/H175R/I121M/I218V/I322F/K168Q/L300P/L318F/M331R/P208A/P217A/Q86L/T323A/T345S/V100A/V358M); experiment: biochemical; type: binding
[13] = biological target: HLA-A*3002 (Homo sapiens, UniProt P04439, D101N/D140H/D185E/E176R/F33S/G80R/H175R/K168Q/Q94H/R138E/R41S/V100E); experiment: biochemical; type: binding
[14] = biological target: HLA-A*2301 (Homo sapiens, UniProt P04439, D101N/D140Y/D185E/E176V/E190D/F33S/G103R/G107R/H175R/I119L/I121M/I306V/K168Q/K335N/L105A/L300P/N151K/N90K/P307H/Q86E/Q94H/R106L/R138H/R89G/T104I/T345S/V100E/W191G/Y123F); experiment: biochemical; type: binding
[15] = biological target: HLA-A*2402 (Homo sapiens, UniProt P04439, D101N/D140Y/D185E/E176V/E190D/F33S/G103R/G107R/I119L/I121M/I306V/K335N/L105A/L180Q/L300P/N151K/N90K/Q86E/Q94H/R106L/R138H/R89G/T104I/T345S/V100E/W191G/Y123F); experiment: biochemical; type: binding
[16] = biological target: HLA-B*1801 (Homo sapiens, UniProt P01889, A329T/A93T/A95T/C349S/D201E/D54G/D98Y/E176V/E187T/E204Q/E69T/K202T/Q94N/R155S/R180L/S121R/V306I/Y140S/Y195H/Y33H/Y91S); experiment: biochemical; type: binding
[17] = biological target: HLA-B*4001 (Homo sapiens, UniProt P01889, A65T/A93T/A95T/D138N/D98Y/E176V/E69K/N87E/Q56L/Q94N/R180L/S121R/S35A/S48T/T167S/V36M/W171L/Y33H/Y91S); experiment: biochemical; type: binding
[18] = biological target: HLA-B*4002 (Homo sapiens, UniProt P01889, A65T/A93T/A95T/D138N/D201E/D98Y/E176V/E204Q/E69K/K202T/N87E/Q56L/Q94N/R180L/S48T/Y33H/Y91S); experiment: biochemical; type: binding
[19] = biological target: HLA-B*4402 (Homo sapiens, UniProt P01889, A223V/A65T/A93T/A95T/D201E/D98Y/E176V/E187L/E204Q/E69K/G107R/H137Y/K202T/L105A/L119I/N104T/N87E/Q56L/Q94N/R106L/R155S/R180D/S101N/S121R/S35A/S48T/T118I/V36M/W191S/Y140D/Y91S); experiment: biochemical; type: binding
[20] = biological target: HLA-B*4403 (Homo sapiens, UniProt P01889, A223V/A65T/A93T/A95T/D201E/D98Y/E176V/E187L/E204Q/E69K/G107R/H137Y/K202T/L105A/L119I/N104T/N87E/Q56L/Q94N/R106L/R155S/R180L/S101N/S121R/S35A/S48T/T118I/V36M/W191S/Y140D/Y91S); experiment: biochemical; type: binding
[21] = biological target: HLA-B*4501 (Homo sapiens, UniProt P01889, A329T/A65T/A93T/A95T/C349S/D138N/D201E/D98Y/E176V/E187L/E204Q/E69K/H137Y/K202T/L119W/N87E/Q56L/Q94N/R155S/R180D/S121R/S35A/S48T/V127L/V306I/V36M/W191S/Y140L/Y33H/Y91S); experiment: biochemical; type: binding
[22] = biological target: HLA-A*0101 (Homo sapiens, UniProt P04439, A114D/A174V/A182V/D101N/D185E/E176A/E190D/L180R/Q94H/R68K/S129P/T187R/V100A/V91M/W191G); experiment: biochemical; type: binding
[23] = biological target: HLA-A*2601 (Homo sapiens, UniProt P04439, A114D/A173T/A270S/D101N/D185E/E277Q/E87N/F33Y/G231S/I121R/I218V/K168Q/L180W/L300P/L318F/P208A/P217A/Q86R/Q94H/R138Q/S129P/T187R/T323A/T345S/V100A/V358M); experiment: biochemical; type: binding

Molecule: CC(C)C[C@H](NC(=O)[C@H](CS)NC(=O)[C@H](CO)NC(=O)[C@@H](N)CCCCN)C(=O)N1CCC[C@H]1C(=O)N[C@@H](C)C(=O)N[C@@H](CS)C(=O)N[C@H](C(=O)N[C@@H](Cc1ccc(O)cc1)C(=O)O)C(C)C [NP.273] (H-KSCLPACVY-OH; N-terminus and C-terminus assumed)
- IFN-γ responses [1]: 590; 1200; 300 SFC/10^6 CD8^+ cells
- peptide-specific recall response [1]: Significant

Molecule: CC(C)C[C@H](NC(=O)CNC(=O)[C@H](Cc1ccc(O)cc1)NC(=O)[C@@H](NC(=O)[C@H](CS)NC(=O)[C@H](C)NC(=O)[C@@H]1CCCN1C(=O)[C@H](CC(C)C)NC(=O)[C@@H](N)CS)C(C)C)C(=O)O [NP.275] (H-CLPACVYGL-OH; N-terminus and C-terminus assumed)
- IFN-γ responses [1]: 350; 986; 2200 SFC/10^6 CD8^+ cells
- peptide-specific recall response [1]: responses induced

Molecule: ASCMGLIYNR [M1.125]
- IC50 [2]: 816 nM
- IC50 [3]: 32 nM
- IC50 [4]: 7 nM
- IC50 [5]: 445 nM
- IC50 [6]: 391 nM

Molecule: FQGRGVFEL [NP.458]
- IC50 [7]: 143 nM
- IC50 [8]: 7 nM
- IC50 [9]: 307 nM
- IC50 [10]: 7 nM
- IC50 [11]: > 10000 nM

Molecule: FQVDCFLWHV [NS1.9]
- IC50 [7]: 4 nM
- IC50 [8]: 4 nM
- IC50 [9]: 3 nM
- IC50 [10]: 1 nM
- IC50 [11]: 219 nM

Molecule: FYIQMCTEL [NP.39]
- IC50 [12]: 1560 nM
- IC50 [13]: > 10000 nM
- IC50 [14]: 8 nM
- IC50 [15]: 24 nM

Molecule: FYRYGFVANF [PB1.496]
- IC50 [12]: 812 nM
- IC50 [13]: > 10000 nM
- IC50 [14]: 13 nM
- IC50 [15]: 17 nM

Molecule: GERQNATEI [NP.17]
- IC50 [16]: > 10000 nM
- IC50 [17]: 199 nM
- IC50 [18]: 53 nM
- IC50 [19]: > 10000 nM
- IC50 [20]: > 10000 nM
- IC50 [21]: 304 nM

Molecule: GLFGAIAGFI [HA.345]
- IC50 [7]: 41 nM
- IC50 [8]: 0.4 nM
- IC50 [9]: 1 nM
- IC50 [10]: 2540 nM
- IC50 [11]: 1530 nM

Molecule: GTFEFTSFFY [PB1.488]
- IC50 [2]: 16 nM
- IC50 [3]: 1 nM
- IC50 [4]: 242 nM
- IC50 [5]: 5410 nM
- IC50 [6]: 100 nM

Molecule: KFLPDLYDYK [PA.104]
- IC50 [2]: 255 nM
- IC50 [3]: 22 nM
- IC50 [4]: 2410 nM
- IC50 [5]: > 10000 nM
- IC50 [6]: 507 nM

Molecule: KLVGINMSKK [PB1.471]
- IC50 [2]: 14 nM
- IC50 [3]: 315 nM
- IC50 [4]: 518 nM
- IC50 [5]: > 10000 nM
- IC50 [6]: 1610 nM

Molecule: LVSDGGPNLY [PB1.590]
- IC50 [22]: 399 nM
- IC50 [23]: 156 nM
- IC50 [12]: 479 nM
- IC50 [13]: 57 nM

Molecule: NMLSTVLGV [PB1.413]
- IC50 [7]: 4 nM
- IC50 [8]: 5 nM
- IC50 [9]: 11 nM
- IC50 [10]: 3 nM
- IC50 [11]: 1060 nM

Molecule: QEIRTFSFQL [NS2.184]
- IC50 [16]: 515 nM
- IC50 [17]: 135 nM
- IC50 [18]: 68 nM
- IC50 [19]: 102 nM
- IC50 [20]: 431 nM
- IC50 [21]: 380 nM

Molecule: RLFFKCIYRR [M2.45]
- IC50 [2]: 135 nM
- IC50 [3]: 294 nM
- IC50 [4]: 5 nM
- IC50 [5]: 238 nM
- IC50 [6]: 88 nM

Molecule: SEQAAEAMEV [M1.196]
- IC50 [16]: 1900 nM
- IC50 [17]: 2670 nM
- IC50 [18]: 85 nM
- IC50 [19]: 2640 nM
- IC50 [20]: 7670 nM
- IC50 [21]: 35 nM

Molecule: SFSFGGFTFK [PB2.322]
- IC50 [2]: 74 nM
- IC50 [3]: 7 nM
- IC50 [4]: 19 nM
- IC50 [5]: 85 nM
- IC50 [6]: 60 nM

Molecule: SVQPTFSVQR [NP.407]
- IC50 [2]: > 10000 nM
- IC50 [3]: 37 nM
- IC50 [4]: 21 nM
- IC50 [5]: 181 nM
- IC50 [6]: 84 nM

Molecule: SVQRNLPFER [NP.413]
- IC50 [2]: > 10000 nM
- IC50 [3]: 411 nM
- IC50 [4]: 104 nM
- IC50 [5]: 321 nM
- IC50 [6]: 19 nM

Molecule: TEVETYVLSI [M1.5]
- IC50 [16]: 136 nM
- IC50 [17]: 133 nM
- IC50 [18]: 195 nM
- IC50 [19]: 6880 nM
- IC50 [20]: 247 nM
- IC50 [21]: 504 nM

Molecule: VLRGFLILGK [PB2.690]
- IC50 [2]: 10 nM
- IC50 [3]: 460 nM
- IC50 [4]: 85 nM
- IC50 [5]: > 10000 nM
- IC50 [6]: 1160 nM

Molecule: YSHGTGTGY [PB1.30]
- IC50 [22]: 199 nM
- IC50 [23]: 5 nM
- IC50 [12]: 486 nM
- IC50 [13]: 131 nM
